Source: patent US9695155B2, “Herbicidal substituted pyrimidinyloxy benzene compounds” (E. I. DU PONT DE NEMOURS AND COMPANY, priority 2013, dated 2017)

Tests used:
wheat = test: Test A preemergence; format: in vivo, Triticum aestivum
Outline: (§1)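 Visual injury scored 0–100 (100 = complete control) against untreated controls about 10 days after treatment in a greenhouse. Test chemicals, formulated with surfactant in non-phytotoxic solvent, were sprayed on soil preemergence or on 2-10 cm, one- to two-leaf plants postemergence.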

soybean = test: Test C preemergence; format: in vivo, Glycine max; conditions: Glycine max, pre-emergence
Outline: (§2)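 Preemergence: seeds sown in a loam soil–sand blend and sprayed with test chemical in a non-phytotoxic solvent mixture containing surfactant. Postemergence: plants at 2 to 18 cm (1- to 4-leaf stage) in peat-based medium, treated with the same formulation. Greenhouse 13 to 15 days, then visual rating 0 (no effect) to 100 (complete control).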

morningglory = test: Test A preemergence; format: in vivo, Ipomoea spp.
Outline: as §1

oilseed rape = test: Test C preemergence; format: in vivo, Brassica napus; conditions: Brassica napus, pre-emergence
Outline: as §2

barnyardgrass [1] = test: Test C preemergence; format: in vivo, Echinochloa crus-galli; conditions: Echinochloa crus-galli, pre-emergence
Outline: as §2

barnyardgrass [2] = test: Test A preemergence; format: in vivo, Echinochloa crus-galli
Outline: as §1

Italian ryegrass = test: Test C preemergence; format: in vivo, Lolium multiflorum; conditions: Lolium multiflorum, pre-emergence
Outline: as §2

wild oat = test: Test C postemergence; format: in vivo, Avena fatua
Outline: as §2

corn = test: Test A postemergence; format: in vivo, Zea mays; conditions: Zea mays, post-emergence, 240 h, 0 to 100 scale where 0 is no effect and 100 is complete control
Outline: as §1

barnyardgrass [3] = test: Test B flooded paddy test; format: in vivo, Echinochloa crus-galli; conditions: Echinochloa crus-galli; Flood, 250 g ai/ha; 0 to 100 scale where 0 is no effect and 100 is complete control; read-out: Plant response rating, Barnyardgrass
Outline: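 Plants were grown to the 2-leaf stage, then pots were flooded to 3 cm above the soil and compounds were applied directly into the paddy water. That depth was held throughout, and after 13 to 15 days in the greenhouse injury was rated visually against controls on a 0–100 scale (0 no effect, 100 complete control).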

large (Lg) crabgrass = test: Test C preemergence; format: in vivo, Digitaria sanguinalis; conditions: Digitaria sanguinalis, pre-emergence
Outline: as §2

galium = test: Test C preemergence; format: in vivo, Galium aparine; conditions: Galium, pre-emergence
Outline: as §2

velvetleaf = test: Test A preemergence; format: in vivo, Abutilon theophrasti
Outline: as §1

chickweed = test: Test C postemergence; format: in vivo, Stellaria media; conditions: Stellaria media, post-emergence
Outline: as §2

In the case of `FC(F)c1cccc(Oc2ncc(Cl)cn2)c1-n1cc(Br)cn1` [Compound 194, 2-[2-(4-bromo-1H-pyrazol-1-yl)-3-(difluoromethyl)phenoxy]-5-chloropyrimidine], the “Wheat plant response rating (0 to 100 scale)” value (wheat; 125 g ai/ha) is reported as 20, the plant injury at 500 g/ha (wheat; Triticum aestivum, pre-emergence, 240 h, 500 g ai/ha, 0 to 100 scale where 0 is no effect and 100 is complete control, read-out: Wheat plant response rating) is reported as 30% and the plant injury at 125 g/ha (soybean; 125 g ai/ha, preemergence, scale 0 (no effect) to 100 (complete control), read-out: Soybean plant response rating) is reported as 25%. The plant injury at 250 g/ha (soybean; 250 g ai/ha, preemergence, scale 0 (no effect) to 100 (complete control), read-out: Soybean plant response rating) was 45%, the plant injury at 62 g/ha (soybean; Preemergence, 62 g ai/ha, scale 0 to 100, 0 no effect, 100 complete control, read-out: Plant response rating, Soybean) was 20% and the “Morningglory plant response rating (0 to 100 scale)” value (morningglory; 125 g ai/ha) was 60. It also gave a pest or weed control at 500 g/ha (morningglory; Ipomoea, pre-emergence, 240 h, 500 g ai/ha, 0 to 100 scale where 0 is no effect and 100 is complete control, read-out: Morningglory plant response rating) of 100%, a plant injury at 125 g/ha (oilseed rape; 125 g ai/ha, preemergence, scale 0 (no effect) to 100 (complete control), read-out: Oilseed Rape plant response rating) of 90% and a plant injury at 250 g/ha (oilseed rape; 250 g ai/ha, preemergence, scale 0 (no effect) to 100 (complete control), read-out: Oilseed Rape plant response rating) of 100%. It also gave a plant injury at 62 g/ha (oilseed rape; Preemergence, 62 g ai/ha, scale 0 to 100, 0 no effect, 100 complete control, read-out: Plant response rating, Oilseed Rape) of 30%, a pest or weed control at 125 g/ha (barnyardgrass [1]; 125 g ai/ha, preemergence, scale 0 (no effect) to 100 (complete control), read-out: Barnyardgrass plant response rating) of 100% and a pest or weed control at 250 g/ha (barnyardgrass [1]; 250 g ai/ha, preemergence, scale 0 (no effect) to 100 (complete control), read-out: Barnyardgrass plant response rating) of 100%. For the same compound, the pest or weed control at 62 g/ha (barnyardgrass [1]; Preemergence, 62 g ai/ha, scale 0 to 100, 0 no effect, 100 complete control, read-out: Plant response rating, Barnyardgrass) was 85%, the “Barnyardgrass plant response rating (0 to 100 scale, 0 is no effect, 100 is complete control)” value (barnyardgrass [2]; 125 g ai/ha) was 80 and the pest or weed control at 500 g/ha (barnyardgrass [2]; Echinochloa crus-galli, pre-emergence, 240 h, 500 g ai/ha, 0 to 100 scale where 0 is no effect and 100 is complete control, read-out: Barnyardgrass plant response rating) was 100%. The pest or weed control at 125 g/ha (Italian ryegrass; 125 g ai/ha, preemergence, scale 0 (no effect) to 100 (complete control), read-out: Ryegrass, Italian plant response rating) was 70%, the pest or weed control at 250 g/ha (Italian ryegrass; 250 g ai/ha, preemergence, scale 0 (no effect) to 100 (complete control), read-out: Ryegrass, Italian plant response rating) was 90% and the pest or weed control at 62 g/ha (Italian ryegrass; Preemergence, 62 g ai/ha, scale 0 to 100, 0 no effect, 100 complete control, read-out: Plant response rating, Ryegrass, Italian) was 20%. The “Oat, Wild plant response rating” value (wild oat; 31 g ai/ha, postemergence, visual rating, scale 0 to 100 (0 no effect, 100 complete control), 13 to 15 days) was 5, the pest or weed control at 125 g/ha (wild oat; Avena fatua, post-emergence, 125 g ai/ha, postemergence, visual rating, scale 0 to 100 (0 no effect, 100 complete control), read-out: Plant response rating, Oat, Wild) was 40% and the pest or weed control at 250 g/ha (wild oat; Avena fatua, post-emergence, 250 g ai/ha, postemergence, read-out: Plant response rating (0 to 100), Oat, Wild) was 45%. The pest or weed control at 62 g/ha (wild oat; Avena fatua, post-emergence, Postemergence, 62 g ai/ha, scale 0 to 100 (0 no effect, 100 complete control), 13 to 15 days, read-out: Plant response rating, Oat, Wild) was 15%, the plant injury at 125 g/ha (corn; 125 g ai/ha, read-out: Corn plant response rating) was 30% and the Corn plant response rating (crop injury, 0 = no effect, 100 = complete kill) at 500 g/ha (corn; 500 g ai/ha) was 60%. It also gave a pest or weed control at 250 g/ha (barnyardgrass [3]) of 0%, a pest or weed control at 125 g/ha (large (Lg) crabgrass; 125 g ai/ha, preemergence, scale 0 (no effect) to 100 (complete control), read-out: Crabgrass, Large plant response rating) of 100% and a pest or weed control at 250 g/ha (large (Lg) crabgrass; 250 g ai/ha, preemergence, scale 0 (no effect) to 100 (complete control), read-out: Crabgrass, Large plant response rating) of 100%. For the same compound, the pest or weed control at 62 g/ha (large (Lg) crabgrass; Preemergence, 62 g ai/ha, scale 0 to 100, 0 no effect, 100 complete control, read-out: Plant response rating, Crabgrass, Large) was 98%, the pest or weed control at 125 g/ha (galium; 125 g ai/ha, preemergence, scale 0 (no effect) to 100 (complete control), read-out: Galium plant response rating) was 90% and the pest or weed control at 250 g/ha (galium; 250 g ai/ha, preemergence, scale 0 (no effect) to 100 (complete control), read-out: Galium plant response rating) was 100%. For the same compound, the pest or weed control at 62 g/ha (galium; Preemergence, 62 g ai/ha, scale 0 to 100, 0 no effect, 100 complete control, read-out: Plant response rating, Galium) was 90%, the “Velvetleaf plant response rating (0 to 100 scale)” value (velvetleaf; 125 g ai/ha) was 80 and the pest or weed control at 500 g/ha (velvetleaf; Abutilon theophrasti, pre-emergence, 240 h, 500 g ai/ha, 0 to 100 scale where 0 is no effect and 100 is complete control, read-out: Velvetleaf plant response rating) was 100%. For the same compound, the pest or weed control at 31 g/ha (chickweed; 31 g ai/ha, postemergence, visual rating, scale 0 to 100 (0 no effect, 100 complete control), 13 to 15 days, read-out: Chickweed plant response rating) was 50%, the pest or weed control at 125 g/ha (chickweed; 125 g ai/ha, postemergence, visual rating, scale 0 to 100 (0 no effect, 100 complete control), read-out: Plant response rating, Chickweed) was 70% and the pest or weed control at 250 g/ha (chickweed; 250 g ai/ha, postemergence, read-out: Plant response rating (0 to 100), Chickweed) was 85%. It also gave a pest or weed control at 62 g/ha (chickweed; Postemergence, 62 g ai/ha, scale 0 to 100 (0 no effect, 100 complete control), 13 to 15 days, read-out: Plant response rating, Chickweed) of 70%.
